In PubChem BioAssay AID1645861 (Buhrlage Lab, Dana-Farber Cancer Institute and Novartis …, 2021):
Activity calls are given as the source filed them.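 Rule for the calls: active = compounds whose peak USP7 inhibition across the dose series reached 30% or more; inactive = the rest.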

These compounds were tested against Ubiquitin carboxyl-terminal hydrolase 7 (Homo sapiens) (UniProt Q93009) (assay: Ubiquitin-specific protease 7 DUB inhibitors, concentration-effect, biochemical, validation of primary hits (AID 1645861)). Settings: purified USP7, Ub-rhodamine cleavage fluorescence, 60 min.
Sequence of Ubiquitin carboxyl-terminal hydrolase 7 (Homo sapiens) (Q93009 whole entry, looked up): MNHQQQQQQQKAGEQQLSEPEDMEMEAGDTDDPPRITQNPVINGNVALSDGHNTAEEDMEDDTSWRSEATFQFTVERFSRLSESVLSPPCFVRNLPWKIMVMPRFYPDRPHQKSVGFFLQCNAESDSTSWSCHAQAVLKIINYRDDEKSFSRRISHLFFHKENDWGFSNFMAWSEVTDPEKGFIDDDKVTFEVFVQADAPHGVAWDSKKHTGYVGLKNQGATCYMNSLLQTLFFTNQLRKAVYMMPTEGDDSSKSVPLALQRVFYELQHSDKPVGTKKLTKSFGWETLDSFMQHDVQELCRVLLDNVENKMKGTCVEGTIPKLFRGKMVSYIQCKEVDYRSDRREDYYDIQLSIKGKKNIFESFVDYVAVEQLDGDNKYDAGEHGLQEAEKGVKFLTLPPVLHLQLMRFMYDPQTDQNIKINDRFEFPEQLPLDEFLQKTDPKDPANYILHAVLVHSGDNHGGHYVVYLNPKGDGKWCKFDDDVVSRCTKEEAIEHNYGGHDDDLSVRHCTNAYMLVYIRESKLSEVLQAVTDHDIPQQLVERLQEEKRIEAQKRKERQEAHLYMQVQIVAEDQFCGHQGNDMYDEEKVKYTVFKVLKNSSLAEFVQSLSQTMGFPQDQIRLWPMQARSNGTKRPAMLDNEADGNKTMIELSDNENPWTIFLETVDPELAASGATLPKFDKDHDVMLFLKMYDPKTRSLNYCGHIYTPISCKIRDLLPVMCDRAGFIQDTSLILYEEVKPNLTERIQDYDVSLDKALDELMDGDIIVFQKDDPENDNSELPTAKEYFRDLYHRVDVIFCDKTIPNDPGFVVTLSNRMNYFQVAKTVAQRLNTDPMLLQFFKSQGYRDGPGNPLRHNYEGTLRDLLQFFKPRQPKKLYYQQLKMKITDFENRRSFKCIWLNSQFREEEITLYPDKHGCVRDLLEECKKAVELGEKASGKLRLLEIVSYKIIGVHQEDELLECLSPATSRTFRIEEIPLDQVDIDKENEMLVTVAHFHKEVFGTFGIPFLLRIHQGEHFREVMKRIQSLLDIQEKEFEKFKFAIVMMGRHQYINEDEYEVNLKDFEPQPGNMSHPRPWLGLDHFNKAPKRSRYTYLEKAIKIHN

Structure (SMILES) | IC50
O=C1CC(c2ccco2)Cc2[nH]c(=O)c(-c3nc(-c4ccc(Cl)cc4)cs3)cc21 (stereo not given) | 28.8 µM
COc1cc(NC(=O)Cn2c(=O)n(-c3ccc(CC(=O)NCc4ccco4)cc3)c(=O)c3ccccc32)cc(OC)c1 | > 50 µM (inactive)
CCCCCCCCCC(CCCCCCCCCC(=O)O)O[C@H]1O[C@@H](COC(C)=O)[C@H](O)[C@@H](O)[C@H]1OC(=O)CC(=O)O (stereo not given in full) | > 50 µM (inactive)
CCn1cc2c(n1)c(=O)n(Cc1ccccc1)c(=O)n2CC(=O)Nc1ccc(C(C)C)cc1 | > 50 µM (inactive)
CCCCCCCC1OC(=O)Cc2cc(O)c(O)c(O)c21 (stereo not given) | > 50 µM (inactive)
O=c1[nH]c(C2CCN(S(=O)(=O)c3ccc(S(=O)(=O)NC4CCCCC4)cc3)CC2)nc2c1nnn2Cc1ccc(F)cc1 | > 50 µM (inactive)
CC1=C(Cn2c3cccc(=O)c-3nc3ccccc32)CCC(C)(C)C1 | > 50 µM (inactive)
Cn1c(=O)c2nc(-c3ccc(Cl)cc3)nnc2n(C)c1=O | > 50 µM (inactive)
Cc1ccc(Cn2cc(-c3noc(C(=O)Nc4cc(F)ccc4F)n3)nn2)cc1 | > 50 µM (inactive)
Cc1cc(NC(=O)c2cc(-c3cccnc3)n[nH]2)ccc1Br | 48.6 µM
COc1ccc(Cl)cc1NC(=O)COC(=O)c1cc2ccccc2oc1=O | > 50 µM (inactive)
CCOc1ccc(-n2c(SCC(=O)Nc3ccc(C)cc3)nnc2-c2c[nH]c3ccccc23)cc1 | > 50 µM (inactive)
Cc1ccc(-n2cc(-c3noc(C(=O)Nc4ccc(F)cc4C)n3)nn2)cc1 | > 50 µM (inactive)
COc1ccc(-c2nc3c(c(=O)c4ccccc4n3C)c(=O)n2Cc2ccco2)cc1 | 46.9 µM
Cc1ccccc1NC(=O)c1nc(-c2cn(Cc3ccc(F)cc3)nn2)no1 | > 50 µM (inactive)
CC1=C(C)C(N(c2ccccc2)c2ccccc2)N(CCC(C)C)C1=O (stereo not given) | > 50 µM (inactive)
Cc1cccc(C)c1NC(=O)CN1C(=O)CC(c2ccccc2)=Nc2ccccc21 | > 50 µM (inactive)
CCc1noc(-c2ccn3c(CC(=O)Nc4ccccc4C)nnc3c2)n1 | > 50 µM (inactive)
COc1ccc(NC(=O)c2cc(-c3cccnc3)n[nH]2)cc1Cl | > 50 µM (inactive)
COc1ccc(OCCn2c(C3CC(=O)N(c4cccc(C)c4)C3)nc3ccccc32)cc1 (stereo not given) | > 50 µM (inactive)
Cc1cc(OCC(=O)Nc2ccccc2C(=O)Nc2ccccc2)ccc1Cl | > 50 µM (inactive)

Structure (SMILES) | IC50
Cc1ccc(CNC(=O)CCCn2c(=O)c3sccc3n(CC(=O)OCc3ccccc3)c2=O)cc1 | > 50 µM (inactive)
O=C(CSc1nc2cc(C(F)(F)F)ccc2s1)NCC(=O)c1ccccc1 | 35.8 µM
CC(C)=CCOC(C)(C)[C@H]1OC2CC[C@@]3(C)C(CCC4Cc5c([nH]c6ccccc56)[C@@]43C)C23OC3[C@@H]1O (stereo not given in full) | 37.7 µM
CCCCCCCCCCCCCCCc1cc(O)cc(O)c1C(=O)O | 30.7 µM
C[C@@H]1CO[C@@H]2C3=C(C(=O)C=CC3=O)[C@H]3OC(=O)[C@@H]4CCC5[C@@H]1CCC52C34 (stereo not given in full) | > 50 µM (inactive)
COc1cc(Cl)c(C)cc1NC(=O)Cn1c(=O)n(CC(=O)NCc2ccco2)c(=O)c2ccccc21 | > 50 µM (inactive)
COc1ccc(-c2cc(-c3ccc(F)cc3)[nH]c(=O)c2C#N)cc1 | > 50 µM (inactive)
CCOc1ccc(-c2nnc(-c3cnc4onc(C5CCCC5)c4c3)o2)cc1 | > 50 µM (inactive)
O=C1CSC(c2ccc3c(c2)OCO3)c2c(n(C3CCCCCC3)[nH]c2=O)N1 (stereo not given) | > 50 µM (inactive)
O=C(O)C1C(C(=O)Nc2ccccc2)C2(c3ccccc3)C(=O)C1(c1ccccc1)C(c1ccccc1)=C2c1ccccc1 (stereo not given) | 15.8 µM
O=C(NC1(O)C(=O)c2ccccc2C1=O)c1cccc2c1-c1ccccc1C2=O | > 50 µM (inactive)
Cc1cc(NC(=O)Cn2c(=O)n(Cc3ccco3)c(=O)c3ccc(C(=O)NCCc4ccccc4)cc32)n[nH]1 | > 50 µM (inactive)
CSCCC(NC(=O)c1ccccc1)c1nc2ccccc2n1CC(=O)Nc1ccccc1 (stereo not given) | > 50 µM (inactive)
CN1C(=O)COc2cc(-c3noc(C(=O)NCc4ccc(F)cc4)n3)ccc21 | > 50 µM (inactive)
Cc1ccc(-c2nc(NC(=O)COc3ccc(Cl)cc3)no2)cc1 | 22.5 µM
COc1ccc(NC(=O)CC(=O)c2ccc([N+](=O)[O-])cc2)cc1S(=O)(=O)Nc1ccc(Cl)cc1 | > 50 µM (inactive)
O=C(Nc1cccc(Br)c1)c1cc(-c2cccnc2)n[nH]1 | 48.7 µM
Cn1nc(C(=O)N2CCC(c3ccccc3)C2)c2c1-c1ccsc1CC2 (stereo not given) | > 50 µM (inactive)
Nc1ccc2oc(-c3cccc(-c4nc5cc(N)ccc5o4)n3)nc2c1 | > 50 µM (inactive)
Cc1nn(-c2ccccc2)c2c1N=C1C(Cl)=CC(Cl)=CN1C21C(=O)Nc2ccccc21 (stereo not given) | 17.4 µM
Cc1nc(-c2noc(-c3cccc(F)c3)n2)cn1CC(=O)Nc1ccccc1 | > 50 µM (inactive)

Second part, the compound after the results:

IC50 | Structure (SMILES)
> 50 µM (inactive) | Nc1ccc(C(=O)OCC(=O)NC2CCCc3ccccc32)cc1[N+](=O)[O-] (stereo not given)
> 50 µM (inactive) | O=C(O)c1ccccc1C(=O)Nc1ccc(SC(C(=O)Nc2cccc(Cl)c2)c2ccccc2)cc1 (stereo not given)
> 50 µM (inactive) | COc1ccc(Cl)cc1NC(=O)Cn1c(=O)n(CCCCC(=O)NCCc2ccccc2)c(=O)c2ccccc21
> 50 µM (inactive) | Cc1cccc(NC(=O)Nc2ccccc2OCc2cc(=O)n3cccc(C)c3n2)c1
> 50 µM (inactive) | CC(C)CC1NC(=O)C2CCCN2C1=O (stereo not given)
> 50 µM (inactive) | O=C(CCCCCn1c(=O)c2sccc2n(CC(=O)c2ccc(Cl)c(Cl)c2)c1=O)NCc1ccc2c(c1)OCO2
> 50 µM (inactive) | O=C(Nc1ccccc1F)c1nc(-c2cn(-c3ccc(F)cc3)nn2)no1
> 50 µM (inactive) | CC1OC2CC(O)C1(O)C1=C2C(O)=C(C(N)=O)C(=N)C1=O (stereo not given)
> 50 µM (inactive) | O=C(NC1(O)C(=O)c2ccccc2C1=O)c1ccc(-c2csnn2)cc1
> 50 µM (inactive) | O=C1Cc2ccccc2C(=O)N1Cc1cccc(Cl)c1
> 50 µM (inactive) | COc1ccc([N+](=O)[O-])cc1NC(=O)COC(=O)c1ccc2[nH]c3c(c2c1)CCCC3
> 50 µM (inactive) | COc1ccccc1CNC(=O)CCCCn1c(=O)c2ccccc2n(Cc2ccc(C)cc2)c1=O
> 50 µM (inactive) | CCC(=O)N1c2ccccc2NC2=C(C(=O)CC(c3ccccc3OCc3ccccc3)C2)C1c1ccccc1 (stereo not given)
> 50 µM (inactive) | CCOc1ccc2cc3c(nc2c1)OC(=O)N(Cc1ccc(OC)cc1)C3
> 50 µM (inactive) | CCN(CC)Cc1ccc(-c2nnc(-c3cnc4onc(C)c4c3)o2)o1
42.7 µM | Cc1ccc(N2CC(c3nc4ccccc4n3CCOc3cccc(C)c3)CC2=O)cc1 (stereo not given)
14.7 µM | CCCCCCCCCCCC1=C(O)C(=O)C=C(O)C1=O
> 50 µM (inactive) | COc1cccc(NC(=O)C(Sc2cccc(NC(=O)c3ccccc3F)c2)c2ccccc2)c1 (stereo not given)
> 50 µM (inactive) | COc1cccc(NC(=O)Cn2c3ccccc3n3c(=O)cc(-c4ccccc4)nc23)c1
39.5 µM | O=C(Nc1ccc(-c2cn3ccsc3n2)cc1)c1ccc(Cl)c([N+](=O)[O-])c1
35.1 µM | Cn1c2ccccc2c(=O)c2c(=O)n(-c3cccc(Cl)c3)c(-c3cccs3)nc21
35.5 µM | Cc1ccc(NC(=O)Cc2nnc3c(-c4nc(C5CC5)no4)cccn23)cc1
> 50 µM (inactive) | N#Cc1cccc(NC(=O)Nc2cccn(Cc3ccccc3F)c2=O)c1
